Data on one compound can be found in patent publication US20050238655A1, “Antiviral activity from medicinal mushrooms” (priority 2004, published 2005).

In test [1] the test system is Vaccinia. The test is classed as cell-based.
The subject of test [2] is Cowpox. The test is classed as cell-based.

As to `Nc1ccn(C[C@@H](CO)OCP(=O)(O)O)c(=O)n1` [CDV], the PR CDV EC90 was 17 µg/mL in test [1] and 18.1 µg/mL in test [2].
